Test results: patent publication US8802597B2, “Herbicidal pyrimidines” (E I du Pont de Nemours and Company, priority 2003, dated 2014)

What was measured:
Assay in all cases: Test G pre/postemergence
Type in all cases: in vivo
[1] = system: Italian ryegrass (Lolium multiflorum)
In short: (§1)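 Visual scores from 0 (no effect) to 100 (complete control) were assigned relative to untreated controls 12 to 21 days after treatment. Compounds, formulated in a non-phytotoxic solvent mixture with surfactant, were applied preemergence to planted seed or postemergence to plants at the 1- to 4-leaf stage (2 to 18 cm).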

[2] = system: Surinam grass (Brachiaria decumbens)
In short: as §1

[3] = system: annual bluegrass (Poa annua)
In short: as §1

[4] = system: barnyardgrass (Echinochloa crus-galli)
In short: as §1

[5] = system: bermudagrass (Cynodon dactylon)
In short: as §1

[6] = system: black mustard (Brassica nigra)
In short: as §1

[7] = system: common chickweed (Stellaria media)
In short: as §1

[8] = system: common ragweed (Ambrosia elatior)
In short: as §1

[9] = system: downy bromegrass (Bromus tectorum)
In short: as §1

[10] = system: field bindweed (Convolvulus arvensis)
In short: as §1

[11] = system: green foxtail (Setaria viridis)
In short: as §1

[12] = system: guineagrass (Panicum maximum)
In short: as §1

[13] = system: prickly sida (Sida spinosa)
In short: as §1

[14] = system: southern sandbur (Cenchrus echinatus)
In short: as §1

[15] = Postemergence, 250 g ai/ha, scale 0 to 100
[16] = Postemergence, 16 g ai/ha, scale 0 to 100
[17] = Postemergence, 31 g ai/ha, scale 0 to 100
[18] = Postemergence, 62 g ai/ha, scale 0 to 100
[19] = Postemergence, 125 g ai/ha, scale 0 to 100
[20] = Preemergence, 16 g ai/ha, scale 0-100
[21] = Preemergence, 31 g ai/ha, scale 0-100
[22] = Preemergence, 62 g ai/ha, scale 0-100
[23] = Preemergence, 125 g ai/ha, scale 0-100
[24] = Preemergence, 250 g ai/ha, scale 0-100

Compound: Nc1nc(C2CC2)nc(C(=O)[O-])c1Cl.[Na+] [Compound 77, 6-amino-5-chloro-2-cyclopropyl-4-pyrimidinecarboxylic acid monosodium salt]
- Plant response rating, Ryegrass, Italian [1, 15]: 40
- Plant response rating, Ryegrass, Italian [1, 16]: 0
- Plant response rating, Ryegrass, Italian [1, 17]: 20
- Plant response rating, Ryegrass, Italian [1, 18]: 30
- Plant response rating, Ryegrass, Italian [1, 19]: 30
- Plant response rating, Ryegrass, Italian [1, 20]: 0
- Plant response rating, Ryegrass, Italian [1, 21]: 0
- Plant response rating, Ryegrass, Italian [1, 22]: 0
- Plant response rating, Ryegrass, Italian [1, 23]: 40
- Plant response rating, Ryegrass, Italian [1, 24]: 75
- Plant response rating, Surinam Grass [2, 15]: 70
- Plant response rating, Surinam Grass [2, 16]: 0
- Plant response rating, Surinam Grass [2, 17]: 10
- Plant response rating, Surinam Grass [2, 18]: 25
- Plant response rating, Surinam Grass [2, 19]: 65
- Plant response rating, Surinam Grass [2, 20]: 0
- Plant response rating, Surinam Grass [2, 21]: 5
- Plant response rating, Surinam Grass [2, 22]: 70
- Plant response rating, Surinam Grass [2, 23]: 90
- Plant response rating, Surinam Grass [2, 24]: 100
- Plant response rating, Bluegrass [3, 15]: 40
- Plant response rating, Bluegrass [3, 16]: 0
- Plant response rating, Bluegrass [3, 17]: 0
- Plant response rating, Bluegrass [3, 18]: 0
- Plant response rating, Bluegrass [3, 19]: 40
- Plant response rating, Bluegrass [3, 20]: 0
- Plant response rating, Bluegrass [3, 21]: 0
- Plant response rating, Bluegrass [3, 22]: 5
- Plant response rating, Bluegrass [3, 23]: 20
- Plant response rating, Bluegrass [3, 24]: 40
- Plant response rating, Barnyardgrass [4, 15]: 75
- Plant response rating, Barnyardgrass [4, 16]: 0
- Plant response rating, Barnyardgrass [4, 17]: 10
- Plant response rating, Barnyardgrass [4, 18]: 40
- Plant response rating, Barnyardgrass [4, 19]: 65
- Plant response rating, Barnyardgrass [4, 20]: 50
- Plant response rating, Barnyardgrass [4, 21]: 55
- Plant response rating, Barnyardgrass [4, 22]: 75
- Plant response rating, Barnyardgrass [4, 23]: 85
- Plant response rating, Barnyardgrass [4, 24]: 90
- Plant response rating, Bermudagrass [5, 15]: 50
- Plant response rating, Bermudagrass [5, 16]: 10
- Plant response rating, Bermudagrass [5, 17]: 20
- Plant response rating, Bermudagrass [5, 18]: 35
- Plant response rating, Bermudagrass [5, 19]: 35
- Plant response rating, Bermudagrass [5, 20]: 0
- Plant response rating, Bermudagrass [5, 21]: 0
- Plant response rating, Bermudagrass [5, 22]: 0
- Plant response rating, Bermudagrass [5, 23]: 10
- Plant response rating, Bermudagrass [5, 24]: 60
- Plant response rating, Black Mustard [6, 15]: 60
- Plant response rating, Black Mustard [6, 16]: 25
- Plant response rating, Black Mustard [6, 17]: 40
- Plant response rating, Black Mustard [6, 18]: 50
- Plant response rating, Black Mustard [6, 19]: 60
- Plant response rating, Black Mustard [6, 20]: 60
- Plant response rating, Black Mustard [6, 21]: 60
- Plant response rating, Black Mustard [6, 22]: 85
- Plant response rating, Black Mustard [6, 23]: 90
- Plant response rating, Black Mustard [6, 24]: 95
- Plant response rating, Chickweed [7, 15]: 100
- Plant response rating, Chickweed [7, 16]: 10
- Plant response rating, Chickweed [7, 17]: 80
- Plant response rating, Chickweed [7, 18]: 90
- Plant response rating, Chickweed [7, 19]: 90
- Plant response rating, Chickweed [7, 21]: 70
- Plant response rating, Chickweed [7, 22]: 90
- Plant response rating, Chickweed [7, 23]: 100
- Plant response rating, Chickweed [7, 24]: 100
- Plant response rating, Ragweed [8, 15]: 100
- Plant response rating, Ragweed [8, 16]: 75
- Plant response rating, Ragweed [8, 17]: 75
- Plant response rating, Ragweed [8, 18]: 95
- Plant response rating, Ragweed [8, 19]: 98
- Plant response rating, Ragweed [8, 20]: 80
- Plant response rating, Ragweed [8, 21]: 95
- Plant response rating, Ragweed [8, 22]: 100
- Plant response rating, Ragweed [8, 23]: 100
- Plant response rating, Ragweed [8, 24]: 100
- Plant response rating, Bromegrass, Downy [9, 15]: 75
- Plant response rating, Bromegrass, Downy [9, 16]: 0
- Plant response rating, Bromegrass, Downy [9, 17]: 20
- Plant response rating, Bromegrass, Downy [9, 18]: 35
- Plant response rating, Bromegrass, Downy [9, 19]: 65
- Plant response rating, Bromegrass, Downy [9, 20]: 0
- Plant response rating, Bromegrass, Downy [9, 21]: 0
- Plant response rating, Bromegrass, Downy [9, 22]: 0
- Plant response rating, Bromegrass, Downy [9, 23]: 10
- Plant response rating, Bromegrass, Downy [9, 24]: 75
- Plant response rating, Bindweed, Field [10, 15]: 100
- Plant response rating, Bindweed, Field [10, 16]: 70
- Plant response rating, Bindweed, Field [10, 17]: 98
- Plant response rating, Bindweed, Field [10, 18]: 98
- Plant response rating, Bindweed, Field [10, 19]: 100
- Plant response rating, Bindweed, Field [10, 20]: 80
- Plant response rating, Bindweed, Field [10, 21]: 90
- Plant response rating, Bindweed, Field [10, 22]: 95
- Plant response rating, Bindweed, Field [10, 23]: 100
- Plant response rating, Bindweed, Field [10, 24]: 100
- Plant response rating, Foxtail, Green [11, 15]: 40
- Plant response rating, Foxtail, Green [11, 16]: 0
- Plant response rating, Foxtail, Green [11, 17]: 0
- Plant response rating, Foxtail, Green [11, 18]: 35
- Plant response rating, Foxtail, Green [11, 19]: 40
- Plant response rating, Foxtail, Green [11, 20]: 0
- Plant response rating, Foxtail, Green [11, 21]: 5
- Plant response rating, Foxtail, Green [11, 22]: 65
- Plant response rating, Foxtail, Green [11, 23]: 85
- Plant response rating, Foxtail, Green [11, 24]: 90
- Plant response rating, Guineagrass [12, 15]: 75
- Plant response rating, Guineagrass [12, 16]: 0
- Plant response rating, Guineagrass [12, 17]: 0
- Plant response rating, Guineagrass [12, 18]: 65
- Plant response rating, Guineagrass [12, 19]: 65
- Plant response rating, Guineagrass [12, 20]: 30
- Plant response rating, Guineagrass [12, 21]: 70
- Plant response rating, Guineagrass [12, 22]: 85
- Plant response rating, Guineagrass [12, 23]: 85
- Plant response rating, Guineagrass [12, 24]: 95
- Plant response rating, Prickly Sida [13, 15]: 80
- Plant response rating, Prickly Sida [13, 16]: 70
- Plant response rating, Prickly Sida [13, 17]: 75
- Plant response rating, Prickly Sida [13, 18]: 80
- Plant response rating, Prickly Sida [13, 19]: 80
- Plant response rating, Prickly Sida [13, 20]: 70
- Plant response rating, Prickly Sida [13, 21]: 75
- Plant response rating, Prickly Sida [13, 22]: 85
- Plant response rating, Prickly Sida [13, 23]: 90
- Plant response rating, Prickly Sida [13, 24]: 95
- Plant response rating, Sandbur [14, 15]: 40
- Plant response rating, Sandbur [14, 16]: 0
- Plant response rating, Sandbur [14, 17]: 0
- Plant response rating, Sandbur [14, 18]: 10
- Plant response rating, Sandbur [14, 19]: 35
- Plant response rating, Sandbur [14, 20]: 0
- Plant response rating, Sandbur [14, 21]: 20
- Plant response rating, Sandbur [14, 22]: 100
- Plant response rating, Sandbur [14, 23]: 100
- Plant response rating, Sandbur [14, 24]: 100
